Test results: paper PMC2949447 (The Journal of steroid biochemistry and molecular biology, 2010)

Experiments:
[1] = test system: castrate immature male Sprague-Dawley rats; assay: sc androgenic assay in castrate immature rats; assay type: in vivo, rat
[2] = target: T1, rat AR ligand binding domain (ARLBD) (Rattus norvegicus, UniProt P15207); assay: Competitive binding to purified rat AR ligand binding domain; settings: RBA = IC50 R1881/IC50 test compound X 100; R1881 defined as 100%
T1 sequence (P15207 651-882 limits assumed): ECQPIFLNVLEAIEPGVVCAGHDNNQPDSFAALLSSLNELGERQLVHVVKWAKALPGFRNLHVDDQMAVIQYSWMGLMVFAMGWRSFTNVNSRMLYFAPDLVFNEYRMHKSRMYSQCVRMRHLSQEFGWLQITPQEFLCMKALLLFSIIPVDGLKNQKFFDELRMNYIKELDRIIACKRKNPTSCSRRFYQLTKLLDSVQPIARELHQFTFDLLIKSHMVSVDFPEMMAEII

[3] = Serum androgen levels by RIA in androgen ± dutasteride treated rats; settings: for effect of concurrent DUT on serum level of the administered androgen: androgen sc ± DUT 1.0 mg/day orally, blood 2 h after final dose; for serum DHT levels: n=10
[4] = test system: castrate immature male Sprague-Dawley rats; assay: Effect of dutasteride in the sc androgenic assay; assay type: in vivo, rat; settings: 8 days; for effect of concurrent DUT on androgen-stimulated VP and SV weights: maximal stimulatory sc dose of androgen ± DUT 1.0 mg/day orally
[5] = test system: recombinant human aromatase; settings: conditions allowing complete conversion of T to estradiol; ref [13]; cited from earlier work
castrate rats = settings: single sc injection 1.2 mg/rat, castrate 22 day-old rats; ref [5] and unpublished observations; cited from earlier work
[6] = test system: rat liver or prostate homogenates; settings: ref Sundaram et al. [1]; cited from earlier work

## C[C@@H]1C[C@H]2CC(=O)CC[C@@H]2[C@@H]2[C@@H]1[C@@H]1CC[C@H](O)[C@@]1(C)C[C@@H]2C [5α-DHDMA, 5α-dihydroDMA]
[1]; sc 7 days
  androgenic potency as percent of DMA (ventral prostate growth): 30-40%

## C[C@@H]1C[C@H]2CC(=O)CC[C@@H]2[C@H]2CC[C@]3(C)[C@@H](O)CC[C@H]3[C@@H]21 [5α-DHMENT, 5α-dihydroMENT]
[2]
  Binding to ARLBD RBA: 26%

## C[C@]12CCC(=O)C[C@@H]1CC[C@@H]1[C@@H]2CC[C@]2(C)[C@@H](O)CC[C@@H]12 [DHT, 5α-dihydrotestosterone]
[3]; 8 days
  effect of concurrent DUT on serum level of the administered androgen: not significantly different
[4]
  effect of concurrent DUT on androgen-stimulated VP and SV weights: comparable

## C[C@@H]1CC2=CC(=O)CC[C@@H]2[C@@H]2[C@@H]1[C@@H]1CC[C@H](O)[C@@]1(C)C[C@@H]2C [DMA, 7α,11β-dimethyl-19-nortestosterone]
[5]
  aromatization to aromatic A-ring estrogen: not aromatized
[3]; 8 days
  effect of concurrent DUT on serum level of the administered androgen: not significantly different
[4]
  effect of concurrent DUT on androgen-stimulated VP and SV weights: did not affect VP or SV weights
[1]; sc, Fig. 1b
  anabolic activity (stimulation of LA muscle weight), comparison: greater than that of 5α-DHDMA or T

## CCCCCCCCCCC(=O)O[C@H]1CC[C@H]2[C@H]3[C@H]([C@@H](C)C[C@]12C)[C@H]1CCC(=O)C=C1C[C@H]3C [DMAU, dimethandrolone 17β-undecanoate]
Castrate rats
  duration VP and SV growth maintained above castrate levels: about 21 weeks

## C[C@]12C=CC(=O)N[C@@H]1CC[C@@H]1[C@@H]2CC[C@]2(C)[C@@H](C(=O)Nc3cc(C(F)(F)F)ccc3C(F)(F)F)CC[C@@H]12 [DUT, 17β-N-2,5-bis-[trifluoromethyl]-phenylcarbamoyl-4-aza-5a-androstan-1-en-3-one]
[3]; T 0.23 mg sc + DUT 0.1 mg/rat orally, 8 days
  serum DHT levels: 606 ± 111 pg/mL
[3]; T 0.23 mg sc + DUT 1.0 mg/rat orally, 8 days
  serum DHT levels: 235 ± 36 pg/mL
[3]; T 0.23 mg sc + DUT 10 mg/rat orally, 8 days
  serum DHT levels: 56 ± 4 pg/mL
[4]; DUT 10 mg/day orally
  toxicity judged by suppression of body weights: showed evidence of toxicity
[4]; DUT 0.1, 1.0 or 10.0 mg/day orally with T 0.23 mg/day sc
  effect on VP and SV weights in T-treated rats: significantly decreased

## C[C@@H]1CC2=CC(=O)CC[C@@H]2[C@H]2CC[C@]3(C)[C@@H](O)CC[C@H]3[C@@H]21 [MENT, 7α-methyl-19-nortestosterone]
[3]; 8 days
  effect of concurrent DUT on serum level of the administered androgen: significantly decreased
[4]
  effect of concurrent DUT on androgen-stimulated VP and SV weights: comparable
[6]
  5α-reduction: not 5α-reduced

## C[C@H]1C[C@]2(C)[C@@H](O)CC[C@H]2[C@@H]2CCC3=CC(=O)CC[C@@H]3[C@H]21 [MNT, 11β-methyl-19-nortestosterone]
[5]
  aromatization to aromatic A-ring estrogen: not aromatized
[3]; 8 days
  effect of concurrent DUT on serum level of the administered androgen: higher
[4]
  effect of concurrent DUT on androgen-stimulated VP and SV weights: did not affect VP or SV weights

## CCCCCCCCCCCCOC(=O)O[C@H]1CC[C@H]2[C@@H]3CCC4=CC(=O)CC[C@@H]4[C@H]3[C@@H](C)C[C@]12C [MNTDC, 11β-methyl-19-nortestosterone 17β-dodecylcarbonate]
Castrate rats
  duration VP and SV growth maintained above castrate levels: ~14 weeks

## C[C@]12CC[C@H]3[C@@H](CCC4=CC(=O)CC[C@@]43C)[C@@H]1CC[C@@H]2O [T, Testosterone]
[3]; T sc + DUT 1.0 mg/day orally, 8 days
  effect of concurrent DUT on serum DHT in T-treated rats: suppressed to levels observed in castrate vehicle-treated rats
[3]; 8 days
  effect of concurrent DUT on serum level of the administered androgen: significantly elevated
[3]; rats treated sc with 0.23 mg T alone for 8 days, 2 h after final dose
  serum DHT levels: 1,247 ± 106 pg/ml
[4]
  effect of concurrent DUT on androgen-stimulated VP and SV weights: significantly blunted
